Data on 14 compounds can be found in patent US4051252A, “3-Aminoindazole-1 and 2-carboxylic acid derivatives” (Bayer Aktiengesellschaft, priority 1974, dated 1977).

SMILES strings stand for the structures. Some results are limits rather than exact numbers.

A short description of data set [1]: Acute Toxicity (oral, mouse). As to conditions: in vivo. The text has this:
The pharmacological properties can be conveniently observed in recognized in vivo models.

Data set [2] relates to rats. Kind of data set: Yeast Antipyretic Test. As to conditions: oral, raised body temperature lowered by 1° C in 50% of animals. It counts as in vivo, rat. The protocol: Antipyretic action can be observed in rats to which a beer yeast suspension has been administered subcutaneously. The body temperature is measured rectally before and 16 hours after administration of the beer years. The substance to be tested is administered orally to groups of 5 rats in which the body temperature has risen by at least 1° C. Thereafter, the temperature drop is measured rectally with a drop in the body temperature of at least 1° C being assessed as an antipyretic effet. The Ed50 is the dose at which, in 50% of the animals employed, the raised body temperature is lowered by 1° C upon administration of the active substance according to the invention.

Data set [3] has as its system rats. Kind of data set: Phenylquinone Writhing Test (analgesic activity). It counts as in vivo. As to conditions: Rattus norvegicus, oral, 60 minutes before phenylquinone i.p., writhing reduced to half of control. The protocol: Analgesic activity can also be observed in the phenylquinone writhing test in which 100 μg of phenylquinone, dissolved in 0.5 ml of 5% strength alcohol, are injected intraperitoneally into rats. A few minutes after administration, the animals show the characteristic writhing reaction, which consists of the animals showing extreme backward extension of the hind paws, flexing the back and lifting the tail. At the same time, wave-like contractions frequently pass over the abdominal muscles. The inhibition of this writhing syndrome is assessed to be an analgesic effect. The substance to be investigated is administered 30 minutes (in the case of subcutaneous administration) or 60 minutes (in the case of oral administration) before the injection of phenylquinone. Five animals are employed per compound and per dose. The ED50 is the dose at which the number of writhing reactions in the animals employed is on average reduced to half that of the control group [see generally: Siegmung et al., Proc. Soc. exp. Biol. Med. 95, 729-731 (1957)].
In general terms: In writhing tests, fewer writhes than in controls are read as antinociception.

For data set [4], the system named is tails of rats. Kind of data set: Tail Flick Test (analgesic action). It counts as in vivo. As to conditions: Rattus norvegicus; oral, male rats; reaction time of 50% of animals lengthened to at least 20 seconds. The text has this: Analgesic action can be observed in the tail flick test on the tails of rats in which the tail of male rats is irradiated with a focused heat ray. In this test, untreated animals react after an average irradiation time of 5.1±0.8 seconds (reaction time) by drawing away the tail. Under the influence of analgesically active compounds, this reaction time becomes longer. Active compounds which after administration prolong the reaction time of the animals to at least 20 seconds are considered to be analgesically active. Five animals are employed per dose. The ED50 is the dose which on average lengthens the reaction time of 50% of the animals employed to at least 20 seconds [see generally Wolff et al., J. Clin. Invest., 19, 659-680 (1940)].
(In hot-plate and tail-flick tests a longer latency is read as antinociception.)

Data set [5] relates to paw of rats. Nature of the data set: Carrageenin Anti-inflammatory Test (carrageenin edema on the paw of rats). It counts as in vivo, rat. As to conditions: one hour before carrageenin, measured 2 1/2 and 3 hours after carrageenin; for ED50: Rattus norvegicus, po. The protocol: The anti-inflammatory (antiphlogistic and anti-edematous) action of the compounds can be conveniently observed by the inhibition of carrageenin edema on the paw of rats. In this test, a reference measurement on the normal paws of rats is carried out half an hour before and half an hour after oral administration of the test compound, using an antiphlogmeter. One hour after administration of the substance, the edema is started by injecting a carrageenin solution into the planta pedis of one hind paw at 21/2 hours and 3 hours after the carrageenin injection, the effect on the edematous paw is measured. The relative paw volume is expressed as a percentage of the reference measurement (=100%). The ED50 is the dose at which, in 50% of the animals employed per dose, the difference between the relative paw volume of the treated animals and the relative paw volume of the 10 control groups is 100.
For orientation: Carrageenan injected into the paw causes an acute inflammation.

As usually defined, the LD50 is the dose expected to kill half of the subjects tested. A low value points to greater toxicity. By ED50 is commonly meant the dose at which the effect has come halfway, by size or by number of responders. On to `Nc1n[nH]c2ccc(C(F)(F)F)cc12` [3-amino-5-trifluoromethylindazole, reference compound], for which the LD50 in data set [1] came to 228 mg/kg. Further, the figures for the median effective dose (ED50) in data set [2], in data set [3] and in data set [4] were 48 mg/kg, 61 mg/kg and 67 mg/kg, respectively.
In the case of `CCOC(=O)n1nc(N)c2cc(C(F)(F)F)ccc21` [3-amino-5-trifluoromethylindazole-1-carboxylic acid ethyl ester], the LD50 in data set [1] is more than 5000 mg/kg. Also, in data set [3], the ED50 came out at 1 mg/kg.
`CCNC(=O)n1nc(N)c2cc(C(F)(F)F)ccc21` [3-amino-5-trifluoromethylindazole-1-carboxylic acid ethylamide]: in data set [1], the LD50 was more than 1000 mg/kg. In addition, the ED50 was determined as 51 mg/kg in data set [2] and 53 mg/kg in data set [4].
Turning to `COC(=O)n1nc(N)c2cc(C(F)(F)F)ccc21` [3-amino-5-trifluoromethylindazole-1-carboxylic acid methyl ester], the ED50 is approximately 50 mg/kg in data set [2] and 41 mg/kg in data set [4].
As to `CCOC(=O)n1nc(N)c2ccc(Cl)cc21` [3-amino-6-chloroindazole-1-carboxylic acid ethyl ester], the LD50 in data set [1] is approximately 2000 mg/kg. Besides, in data set [5], the ED50 was approximately 77 mg/kg and the “ED50 (oral), Carrageenin Anti-inflammatory Test” value is given as 68 (44-138) mg/kg.
Consider `COC(=O)n1nc(N)c2ccc(Cl)cc21` [3-amino-6-chloroindazole-1-carboxylic acid methyl ester], for which the LD50 in data set [1] is more than 1000 mg/kg. Besides, the ED50 in data set [2] is approximately 20 mg/kg; in data set [5], approximately 40 mg/kg; in data set [3], approximately 10 mg/kg; in data set [4], 30 mg/kg.
For `CCCCOC(=O)n1nc(N)c2ccc(Cl)cc21` [3-amino-6-chloroindazole-1-carboxylic acid n-butyl ester], the LD50 in data set [1] was more than 1000 mg/kg. This compound also gave an ED50 in data set [5] of 67 mg/kg.
Consider `CN(C)C(=O)n1nc(N)c2ccc(Cl)cc21` [3-amino-6-chloroindazole-1-carboxylic acid-dimethylamide], for which the LD50 in data set [1] was more than 1000 mg/kg. The compound also yielded an ED50 in data set [2] of 41 mg/kg.
In the case of `CN(C)C(=O)n1nc2cc(Cl)ccc2c1N` [3-amino-6-chloroindazole-2-carboxylic acid dimethylamide], the ED50 stood at 23 mg/kg in data set [2] and 17 mg/kg in data set [3].
For `CCOC(=O)n1nc(N)c2ccc(C(F)(F)F)cc21` [3-amino-6-trifluoromethylindazole-1-carboxylic acid ethyl ester], the values for the ED50 in data set [2] and in data set [4] were approximately 50 mg/kg and 53 mg/kg, respectively.
The compound `CCOC(=O)n1nc(N)c2ccccc21` [3-aminoindazole-1-carboxylic acid ethyl ester] registered an LD50 in data set [1] of approximately 3000 mg/kg. This compound yielded an ED50 in data set [5] of approximately 47 mg/kg.
For the compound `CCOC(=O)n1nc(N(C)C)c2ccc(Cl)cc21` [3-dimethylamino-6-chloroindazole-1-carboxylic acid ethyl ester], the LD50 in data set [1] was more than 5000 mg/kg. Further, the ED50 turned out to be 5.2 mg/kg in data set [2] and 17 mg/kg in data set [3].
Regarding `CN(C)C(=O)n1nc(NC=O)c2ccc(C(F)(F)F)cc21` [3-formylamino-6-trifluoromethyl-1-carboxylic acid dimethylamide], the “ED50 (oral), Carrageenin Anti-inflammatory Test” value in data set [5] is given as 92 (44-216) mg/kg.
As to `CN(C)C(=O)n1nc(NC=O)c2cc(C(F)(F)F)ccc21` [3formylamino-5-trifluoromethylindazole-1-carboxylic acid dimethylamide], the LD50 in data set [1] was more than 1000 mg/kg. Also, it took a dose of 14 mg/kg to reach the 50% effect level in data set [2] (ED50).
